Where two headings read alike, the source gives them in different places.
Key:
[1] = system: PC3M cells overexpressing eEF1A2; experiment: PNC disassembly in eEF1A2-overexpressing cells; assay type: cell-based; details: vs control vector
From the text: FIG. 39 is a graph showing that overexpression of eEF1A2 in PC3M cells increased the IC50 of metarrestin for PNC disassembly. PNC prevalence (%) is on the y-axis and the log [M] metarrestin is on the […]. eEF1A2 is shown by circles and the control vector is shown by squares.
eEF1As are multi-functional proteins, implicated in translation elongation, actin bundling, nuclear transport, and tRNA export. To evaluate whether eEF1A mediates the effect of metarrestin on cancer cells, eEF1A was either overexpressed or reduced through siRNA silencing. […] Thus, eEF1A2 enhances PNC structures, but is alone not sufficient to induce significant formation of PNCs in PNC-negative cells. To evaluate the functional link between the phenotype of metarrestin-induced PNC disassembly and eEF1A2, PNC disassembly in wild type and eEF1A2-overexpressing cancer cells was analyzed. Cells with and without over expression of eEF1A2-HA (48 hours after transfection with an efficiency at around 70%, FIGS. 61 and 64) were treated with metarrestin at 10 concentrations, and PNC prevalence was evaluated at 63× magnification. […] To evaluate whether eEF1A2 indeed regulates the metastatic phenotype, PANC1 cells with (PANC1 eEF1A2 O.E.) or without (PANC1 control) overexpression of eEF1A2 were orthotopically injected into NSG mice. Six weeks after implantation, organs were subjected to histopathological evaluation.

C57B/L6 = assay type: in vivo, mice
[2] = system: HeLa, PANC1 and PC3M cells; PANC1 xenograft tumor tissues; experiment: Nucleolar structure by electron microscopy and immunofluorescence in cancer cells and tumor tissues; assay type: cell-based, human
Method: Representative electron micrographs are shown for HeLa cells (FIG. 21A; treated at 1 μM for 24 hours), primary pancreatic tumors (FIG. 21B), and liver metastases (FIG. 21C) from NSG PANC1 mice treated with vehicle (top) or 10 mg/kg metarrestin (bottom) for 7 days. […] Scale bar=1 μm.
100 nucleoli were randomly selected and analyzed to calculate nucleolar area as ((largest+shortest diameter)/2)^2×π). The comparison of mean nucleolar areas was performed using Mann Whitney U test, 2-tailed, n=4 animals per group.
To address the mechanisms by which metarrestin inhibits metastasis, cellular changes after metarrestin treatment were observed. Primary antibodies: 1:300 dilution for SH54 (anti-PTB antibody); 1:300 for Nopp140 (anti-human Nopp140 rabbit polyclonal serum RS8); 1:50 for UBF (F-9) (Santa Cruz Biotechnology); 1:100 for RPA194 (Santa Cruz Biotechnology); 1:100 for CUG-BP1 (3B1) (Santa Cruz Biotechnology); 1:10 for fibrillarin (Sigma Cat #: ANA-N); 1:1000 for SC35; 1:300 for paxillin (ab32084); 1:600 for vinculin (Sigma V9131). The fluorescein-conjugated secondary antibodies (Jackson ImmunoResearch) and ALEXA FLUOR antibodies (Thermofisher Scientific) were used at a dilution of 1:200. Samples were visualized on a Nikon ECLIPSE Ti-E inverted fluorescence microscope using NIS-Elements AR 3.2 software (Nikon).
The nucleolar disruption was reversible within 48 hours upon withdrawal of metarrestin (FIG. 47). Similar disruptions were observed among other treated cell lines, including PANC1 and PC3M cells (FIG. 48), primary tumor, and liver metastatic tissues in the PANC1 xenograft model (FIG. 21, right panels). […] The segregation of the nucleolar compartments observed by EM is believed to correspond to the nucleolar capping structures detected by immunofluorescence of nucleolar proteins (FIGS. 21A-21C, 23, and 50). […]

[3] = female, C57B/L6, mouse, in vivo
[4] = female, C57B/L6, mouse, in vivo, 3 months
[5] = male, C57B/L6, mouse, in vivo, 3 months

N=c1c2c(-c3ccccc3)c(-c3ccccc3)n(Cc3ccccc3)c2ncn1[C@H]1CC[C@H](O)CC1 [metarrestin]
IC50 for PNC disassembly with increased expression of eEF1A2 [1]: increased the inhibitory concentration 50 (IC50) | Kidney regeneration, tubule (C57B/L6; C57B/L6 Metarrestin Female F03): 1/4 | Brain hemorrhage (C57B/L6; C57B/L6 Metarrestin Male M03): 1/4 | Epididymis aspermia (C57B/L6; C57B/L6 Metarrestin Male M03): 1/4 | Kidney regeneration, tubule (C57B/L6; C57B/L6 Metarrestin Male M03): 3/4 | Gall Bladder inflammation, acute (C57B/L6; [3]): 3/4 | Ileum segmented filamentous bacteria (C57B/L6; [3]): 3/4 | Adrenal hyperplasia, subcapsular cell (C57B/L6; [4]): 3/4 | Kidney dilatation, tubule (C57B/L6; [4]): 3/4 | Kidney infarct (C57B/L6; [4]): 1/4 | Kidney mineralization (C57B/L6; [4]): 2/4 | Liver inflammation, subacute (C57B/L6; [4]): 4/4 | Lung lymphocytic infiltrate (C57B/L6; [4]): 4/4 | Spleen extramedullary hematopoiesis, erythrocytic, increased erythropoiesis (C57B/L6; [4]): 2/4 | Cecum proliferative typhlitis (C57B/L6; male, C57B/L6, mouse, in vivo): 1/4 | Femur marrow hyperplasia, granulocytic (C57B/L6; male, C57B/L6, mouse, in vivo): 1/4 | Gall Bladder inflammation, acute (C57B/L6; male, C57B/L6, mouse, in vivo): 3/4 | Heart mineralization (C57B/L6; male, C57B/L6, mouse, in vivo): 1/4 | Adrenal lipogenic pigment (C57B/L6; [5]): 4/4 | Ileum segmented filamentous bacteria (C57B/L6; [5]): 3/4 | Kidney dilatation, tubule (C57B/L6; [5]): 2/4 | Kidney mineralization (C57B/L6; [5]): 2/4 | Kidney vacuolation. proximal tubule (C57B/L6; [5]): 1/4 | Liver inflammation, subacute (C57B/L6; [5]): 3/4 | Lung lymphocytic infiltrate (C57B/L6; [5]): 3/4 | Spleen melanin (C57B/L6; [5]): 1/4 | Testis degeneration, seminiferous tubule (C57B/L6; [5]): 1/4 | Thymus cyst (C57B/L6; [5]): 1/4 | Vertebra hyperplasia, granulocytic, marrow (C57B/L6; [5]): 1/4 | Nucleolar structure ([2]; 1 μM, electron microscopy): induced collapse of the nucleolus | Time to reversal of nucleolar disruption upon withdrawal ([2]; after 1 μM for 24 hours, HeLa cells): ≤ 48 h | Nucleolar volume ([2]; treated cell lines and cancer tissues, p<0.0001): significantly reduced
